The test system of experiment [1] is orthotopic (O) mouse model of PC (OPC). Conditions: earlier report (ref 12), cited from earlier work.
For the next experiment, the system named is Panc02 cells. The experiment in a line: Apoptosis by flow cytometry (Annexin V and PI), Panc02. Type of experiment: cell-based, mouse. As to conditions: API 10, 20, 30, 40, 50 μM, 24 h. As for the experimental part: Panc02 and UN-KC-6141 cells were seeded in 6-well plates allowed to grow to 50-60% confluency. Cells were then treated with API at a dose-dependent concentration (10, 20, 30, 40, 50 μM) or DMSO (1%) as vehicle control and incubated for 24 h at 37° C. in a humidified atmosphere of 5% CO2. Cells were collected and stained with a FITC Annexin V Apoptosis Detection Kit I (BD Bioscience, San Jose, CA, USA) according to the manufacturer's instructions. Acquisition of samples was performed using a flow cytometer BD LSRII (BD Biosciences Immunocytometry Systems, San Jose, CA, USA). FlowJo v10.8 software (TreeStar Inc., Ashland, OR, USA) was used for data analysis.
On the technique in general: In flow cytometry, cells or beads pass a laser one at a time.

The test system of experiment [2] is miR-155. The experiment in a line: miR-155 gene expression by RT-qPCR in Panc02 cells. As to conditions: API 40 μM, 24 h, vs DMSO vehicle. Type of experiment: cell-based, mouse. The protocol:
(§1) MiR-155 is known to be overexpressed in different cancers, including PC^21, 23. The inventors first assessed whether apigenin could modulate the expression of miR-155 in PC cells. Murine PC cell lines Panc02 and UN-KC-6141 as well as the human PC cell line MiaPaCa-2 were treated with API (40 μM) or DMSO vehicle for 24 h and the expression of miR-155 was examined using RT-qPCR assay. […] Since API is known to inhibit the growth of cancer cells, including PC cells^39-43, 47-50, the same PC cell lines were treated with API (40 μM) or DMSO (vehicle) for 24 h and examined cell viability using MTT assay. […] Moreover, Panc02 and UN-KC-6141 cells were then treated with API at a dose dependent concentration (10, 20, 30, 40, 50 μM) and detected apoptosis using flow cytometry (Annexin V and PI).
(§2) miR-155 is implicated in the development of pancreatic tumors from pancreatic intraepithelial neoplasia (PanIN) lesions, and is overexpressed in PC^23. The inventors examined whether the depletion of miR-155 modulated PC viability. Murine and human PC cell lines were transfected with miR-155 inhibitor (i.e., MMU-MIR-155-5P/HSA-MIR-155-5P) and scrambled miRNA at a concentration of 100 nM for 24 h and cell viability determined using an MTT assay. The expression of miR-155 was examined using an RT-qPCR assay as well. […]

Experiment [3] deals with miR-155. The experiment in a line: miR-155 gene expression by RT-qPCR in MiaPaCa-2 cells. Conditions: API 40 μM, 24 h, vs DMSO vehicle. Type of experiment: cell-based, human. As for the experimental part: as §1, §2

The text below walks through data of US20240415804A1, “METHOD OF TREATING PANCREATIC CANCER” (University of South Florida, priority 2022, published 2024).

`O=c1cc(-c2ccc(O)cc2)oc2cc(O)cc(O)c12` [API, 40,5,7-Trihydroxyflavone, 5,7-Dihydroxy-2-(4-hydroxyphenyl)-4-benzopyrone]: the “necrosis of pancreatic tumor cells (H&E staining)” value in experiment [1] (API treatment of OPC mice) is “induced necrosis”. In experiment [1] (OPC mouse model), the tumor growth entry was “reduced”. In the experiment on Panc02 cells, the “apoptosis (Annexin V and PI)” value is “induces apoptosis”. In addition, the miR-155 gene expression result in the experiment with miR-155 [2] and in the experiment on miR-155 [3] was “significantly suppressed” in each case.
